This is an account of results in patent US20160122386A1, “V1A RECEPTOR AGONISTS” (FERRING B.V., priority 2014, published 2016).

Read-outs that look alike come from different tables or passages of the source. Starred links: 1 amine or outer side, 2 acyl side, 3 side chain; linkers in the order of their positions; H or OH if unused. Positions of bridges follow the written chain, without caps; N, C: chain ends. Non-standard residues stand in square brackets, D forms with d. Residues, ends and D or L forms follow the SMILES beside them. Chains are numbered I, II in the order given. *: point of attachment. d(isoGln) = NC(=O)[C@@H](CCC(=O)[*:2])N[*:1]; isoGln = NC(=O)[C@H](CCC(=O)[*:2])N[*:1]; d(εLys) = N[C@H](CCCCN[*:1])C(=O)[*:2]; εLys = N[C@@H](CCCCN[*:1])C(=O)[*:2]; Dab = NCC[C@H](N)C(=O)O; PhAc = O=C(Cc1ccccc1)*; Ava = NCCCCC(=O)O

The assay addresses T1, human V1aR (Homo sapiens, UniProt P37288).
T1 construct: expressed in transfected cells
Kind of assay: Agonist activity at vasopressin V1a receptors, cell-based FLIPR calcium assay. Conditions: for Emax: read-out: Efficacy Avg. (%). In short, it runs like this: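 HEK Flp-In cells stably expressing human V1aR were loaded with Calcium 4 dye plus 2.5 mM probenecid for 1 h at 37 °C, then given half-log compound concentrations (final 0.1% DMSO) on FLIPR Tetra.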

Where [1] appears, read: HEK-flpin cells stably expressing hV1aR, intracellular calcium fluorescence, averaged, read-out: EC50 (Avg).

T1 sequence (P37288 whole entry): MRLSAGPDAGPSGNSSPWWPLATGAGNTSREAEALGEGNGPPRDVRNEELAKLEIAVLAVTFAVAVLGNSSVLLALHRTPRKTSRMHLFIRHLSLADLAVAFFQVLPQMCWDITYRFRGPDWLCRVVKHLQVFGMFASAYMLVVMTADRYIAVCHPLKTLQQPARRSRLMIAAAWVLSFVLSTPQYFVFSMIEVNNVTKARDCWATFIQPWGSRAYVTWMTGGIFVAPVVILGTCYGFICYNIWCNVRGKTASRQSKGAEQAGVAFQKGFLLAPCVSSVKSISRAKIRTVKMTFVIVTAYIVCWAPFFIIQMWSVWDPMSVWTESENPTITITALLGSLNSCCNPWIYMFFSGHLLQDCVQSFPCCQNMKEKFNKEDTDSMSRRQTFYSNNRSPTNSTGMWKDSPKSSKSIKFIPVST

For the compound `CC[C@H](C)[C@@H]1NC(=O)[C@H](Cc2ccccc2)NC(=O)[C@@H](O)CSSC[C@@H](C(=O)N2CCC[C@H]2C(=O)N[C@@H](CCNC(=O)[C@@H](N)CCCCNC(=O)CC[C@H](NC(=O)[C@H](CCCNC(=N)N)NC(=O)[C@@H]2CCCN2C(=O)[C@H](CCCNC(N)=O)NC(=O)[C@H](CC(N)=O)NC(=O)[C@H](CCC(N)=O)NC(=O)[C@H](Cc2ccccc2)NC(=O)[C@@H](Cc2ccc(OC)cc2)NC(=O)Cc2ccccc2)C(N)=O)C(=O)NCC(N)=O)NC(=O)[C@H](CC(N)=O)NC(=O)[C@H](CCCC(N)=O)NC1=O` [Compound 48], the EC50 came out at 1.4 nM and the Emax stood at 67%.
For `CC[C@H](C)[C@@H]1NC(=O)[C@H](Cc2ccccc2)NC(=O)[C@@H](N)CSSC[C@@H](C(=O)N2CCC[C@H]2C(=O)N[C@@H](CCNC(=O)[C@H](N)CCCCNC(=O)CC[C@@H](NC(=O)[C@H](CCCNC(=N)N)NC(=O)[C@@H]2CCCN2C(=O)[C@H](C)NC(=O)[C@H](CC(N)=O)NC(=O)[C@H](CCC(N)=O)NC(=O)[C@H](Cc2ccccc2)NC(=O)[C@@H](Cc2ccc(OC)cc2)NC(=O)Cc2ccccc2)C(N)=O)C(=O)NCC(N)=O)NC(=O)[C@H](CC(N)=O)NC(=O)[C@H](CCC(N)=O)NC1=O` [Compound 56] (I: H-CFIQNCP[Dab]G-NH2 / II: PhAc-[dY](Me)FQNAPR[d(isoGln)][d(εLys)]; disulfide I:1-I:6; amide I:8-II:C), the EC50 was found to be 1.8 nM and the Emax came out at 60%.
Taken in the same sequence, the figures for `CC[C@H](C)[C@@H]1NC(=O)[C@H](Cc2ccccc2)NC(=O)[C@@H](N)CSSC[C@@H](C(=O)N2CCC[C@H]2C(=O)N[C@@H](CCCNCCCCCNC(=O)CC[C@H](NC(=O)[C@H](CCCNC(=N)N)NC(=O)[C@@H]2CCCN2C(=O)[C@H](CCCNC(N)=O)NC(=O)[C@H](CC(N)=O)NC(=O)[C@H](CCC(N)=O)NC(=O)[C@H](Cc2ccc(Cl)cc2)NC(=O)[C@@H](Cc2ccc(OC)cc2)NC(=O)Cc2ccccc2)C(N)=O)C(=O)NCC(N)=O)NC(=O)[C@H](CC(N)=O)NC(=O)[C@H](CCC(N)=O)NC1=O` [Compound 45] were 0.8 nM and 72%.
With `CCCCCCC(=O)N[C@H](Cc1ccc(OC)cc1)C(=O)N[C@@H](Cc1ccccc1)C(=O)N[C@@H](CCC(N)=O)C(=O)N[C@@H](CC(N)=O)C(=O)N[C@@H](C)C(=O)N1CCC[C@H]1C(=O)N[C@@H](CCCNC(=N)N)C(=O)N[C@@H](CCC(=O)NCCCCCCNCCC[C@H](NC(=O)[C@@H]1CCCN1C(=O)[C@@H]1CSSC[C@H](N)C(=O)N[C@@H](Cc2ccccc2)C(=O)N[C@@H]([C@@H](C)CC)C(=O)N[C@@H](CCC(N)=O)C(=O)N[C@@H](CC(N)=O)C(=O)N1)C(=O)NCC(N)=O)C(N)=O` [Compound 17], the Emax was 62%. For the same compound, the EC50 under setting [1] stood at 2.9 nM.
On to `CC[C@H](C)[C@@H]1NC(=O)[C@H](Cc2ccccc2)NC(=O)[C@@H](N)CSSC[C@@H](C(=O)N2CCC[C@H]2C(=O)N[C@@H](CCNC(=O)[C@@H](N)CCCCNC(=O)CCCCNC(=O)CC[C@H](NC(=O)[C@H](CCCNC(=N)N)NC(=O)[C@@H]2CCCN2C(=O)[C@H](C)NC(=O)[C@H](CC(N)=O)NC(=O)[C@H](CCC(N)=O)NC(=O)[C@H](Cc2ccccc2)NC(=O)[C@@H](Cc2ccc(OC)cc2)NC(=O)Cc2ccccc2)C(N)=O)C(=O)NCC(N)=O)NC(=O)[C@H](CC(N)=O)NC(=O)[C@H](CCC(N)=O)NC1=O` [Compound 37] (I: H-CFIQNCP[Dab]G-NH2 / II: PhAc-[dY](Me)FQNAPR[isoGln][Ava][εLys]; disulfide I:1-I:6; amide I:8-II:C), for which the EC50 worked out at 1.3 nM and the Emax stood at 44%.
For `CC[C@H](C)[C@@H]1NC(=O)[C@H](Cc2ccccc2)NC(=O)[C@@H](N)CSSC[C@@H](C(=O)N2CCC[C@H]2C(=O)N[C@@H](CCCNCCCCCCNC(=O)CC[C@H](NC(=O)[C@H](CCCNC(=N)N)NC(=O)[C@@H]2CCCN2C(=O)[C@H](C)NC(=O)[C@H](CC(N)=O)NC(=O)[C@H](CCC(N)=O)NC(=O)[C@H](Cc2ccccc2)NC(=O)[C@@H](Cc2ccc(OC)cc2)NC(=O)CC(C)C)C(N)=O)C(=O)NCC(N)=O)NC(=O)[C@H](CC(N)=O)NC(=O)[C@H](CCC(N)=O)NC1=O` [Compound 21], the Emax stood at 47%. In addition, under setting [1], the half-maximal effective concentration (EC50) was 1.5 nM.

As usually defined, the EC50 is the midpoint of the concentration-response curve.
